Experimental data: ChEMBL document CHEMBL1145767, “Conformational restriction of methionyl tRNA synthetase inhibitors leading to analogues with potent inhibition and excellent gram-positive antibacterial activity” (Bioorg Med Chem Lett, 2003)
In brackets after ≈: the same amount, converted by molar mass.

What was measured:
Assay type in all cases: functional
[1] = tested on: Staphylococcus aureus; experiment: Inhibitory activity against Staphylococcus aureus MRS
[2] = tested on: Staphylococcus aureus; experiment: Antibacterial activity against Staphylococcus aureus Oxford
[3] = tested on: Enterococcus faecalis; experiment: Antibacterial activity against Enterococcus faecalis 1
[4] = tested on: Staphylococcus aureus; experiment: Antibacterial activity against Staphylococcus aureus
[5] = tested on: Staphylococcus epidermidis; experiment: Antibacterial activity against Staphylococcus epidermidis
[6] = tested on: Enterococcus faecalis; experiment: Antibacterial activity against Enterococcus faecalis
[7] = tested on: Enterococcus faecium; experiment: Antibacterial activity against Enterococcus faecium

SMILES | IC50 [1] [nM] | MIC [2] [µg/mL] | MIC [3] [µg/mL] | MIC90 [4] [µg/mL] | MIC90 [5] [µg/mL] | MIC90 [6] [µg/mL] | MIC90 [7] [µg/mL]
Oc1cc(NC[C@H]2CCC[C@H]2NCc2ccc(Cl)c(Cl)c2)nc2ccccc12 | 18 | 16 (≈ 38.4 µM) | 8 (≈ 19.2 µM) | – | – | – | –
Oc1cc(NC[C@@H]2CCC[C@H]2NCc2ccc(Cl)c(Cl)c2)nc2ccccc12 | 700 | > 64 | 32 (≈ 76.9 µM) | – | – | – | –
Oc1cc(N[C@H]2CC[C@H](NCc3ccc(Cl)c(Cl)c3)CC2)nc2ccccc12 | 2300 | > 64 | > 64 | – | – | – | –
Oc1cc(NC[C@H]2CCC[C@@H]2NCc2ccc(Cl)c(Cl)c2)nc2ccccc12 | 9 | 1 (≈ 2.4 µM) | 0.125 (≈ 0.3 µM) | – | – | – | –
Oc1cc(NCc2ccccc2NCc2ccc(Cl)c(Cl)c2)nc2ccccc12 | 56 | > 64 | > 64 | – | – | – | –
Oc1cc(NC[C@H]2OCC[C@@H]2NCc2ccc(Cl)c(Cl)c2)nc2ccccc12 | 78 | 64 (≈ 153 µM) | 4 (≈ 9.56 µM) | – | – | – | –
Oc1cc(NC[C@@H]2CCC[C@@H]2NCc2ccc(Cl)c(Cl)c2)nc2ccccc12 | 100 | 8 (≈ 19.2 µM) | 1 (≈ 2.4 µM) | – | – | – | –
CCOc1c(Br)cc(Br)cc1CN[C@H]1CCC[C@@H]1CNc1cc(O)c2ccccc2n1 | 7.6 | < 0.06 | < 0.06 | 0.06 (≈ 0.109 µM) | 0.125 (≈ 0.228 µM) | 0.03 (≈ 0.0546 µM) | < 0.016
Oc1cc(NC[C@H]2CCC[C@@H]2NCc2cc(Br)cc(Br)c2)nc2ccccc12 | 10 | < 0.06 | < 0.06 | – | – | – | –
Oc1cc(N[C@H]2CCC[C@H](NCc3ccc(Cl)c(Cl)c3)C2)nc2ccccc12 (racemic) | 43 | > 64 | > 64 | – | – | – | –
Oc1cc(NC[C@H]2CC[C@@H]2NCc2ccc(Cl)c(Cl)c2)nc2ccccc12 (racemic) | 12 | 2 (≈ 4.97 µM) | 0.25 (≈ 0.621 µM) | – | – | – | –
Oc1cc(NC[C@H]2CC[C@H]2NCc2ccc(Cl)c(Cl)c2)nc2ccccc12 (racemic) | 110 | > 64 | 16 (≈ 39.8 µM) | – | – | – | –
Oc1cc(N[C@@H]2CCC[C@H](NCc3ccc(Cl)c(Cl)c3)C2)nc2ccccc12 (racemic) | 150 | 64 (≈ 154 µM) | 32 (≈ 76.9 µM) | – | – | – | –
Oc1cc(NCC2=CCCC2NCc2ccc(Cl)c(Cl)c2)nc2ccccc12 (racemic) | 10 | > 64 | > 64 | – | – | – | –
